From patent publication US20220267277A1, “DOPAMINE RECEPTOR D1 AGONISTS AND METHODS OF USE” (Sanford Burnham Prebys Medical Discovery Institute, priority 2019, published 2022)
Read-outs that look alike come from different tables or passages of the source.

Experiments:
[1] = biological target: T1, DR1 (Homo sapiens, UniProt P21728); experiment: DR1 agonism EC50 (Example B-1, Table 4); format: cell-based
T1 construct: endogenous in cells; host or cells: IPF patient derived fibroblasts
Procedure: cAMP Assay: IPF patient derived fibroblasts are plated in EMEM containing 10% FBS overnight. […] Twenty minutes prior to cell lysis the media is removed and cells are treated with “induction buffer” containing nonselective phosphodiesterase inhibitors and the indicated concentration of compound(s). Luminescence is measured on a Flexstation 3 (Molecular Devices) plate reader.
(§1) Example B-1: Enzyme Assay of Inhibition of YAP/TAZ and DR1

[2] = test system: YAP/TAZ; experiment: Inhibition of YAP/TAZ (Example B-1, Table 4); format: cell-based
Description: as §1

[3] = test system: YAP/TAZ nuclear localization in human lung fibroblasts; experiment: YAP/TAZ nuclear localization in human lung fibroblasts (FIG. 1)
[4] = test system: Col1a1; details: 10 μM; precision cut lung slices cultured for 3 days; aged mice (24 months) injured with bleomycin

T1 sequence (P21728 whole entry): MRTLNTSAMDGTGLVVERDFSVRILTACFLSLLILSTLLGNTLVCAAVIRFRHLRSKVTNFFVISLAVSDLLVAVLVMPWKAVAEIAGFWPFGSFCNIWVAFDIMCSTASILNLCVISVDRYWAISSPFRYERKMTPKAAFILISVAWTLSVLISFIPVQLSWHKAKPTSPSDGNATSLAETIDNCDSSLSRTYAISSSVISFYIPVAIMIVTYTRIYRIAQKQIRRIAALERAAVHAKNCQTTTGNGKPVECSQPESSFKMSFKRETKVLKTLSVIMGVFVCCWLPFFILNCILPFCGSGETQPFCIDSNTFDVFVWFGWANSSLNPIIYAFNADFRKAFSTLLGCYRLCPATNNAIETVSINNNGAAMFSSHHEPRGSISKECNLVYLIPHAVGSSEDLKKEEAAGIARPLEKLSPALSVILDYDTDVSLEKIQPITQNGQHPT

Compound | EC50 ([1]; read-out: DR1 EC50) | IC50 [2] | EC50 [1] | inhibition of YAP/TAZ nuclear localization [3] | expression of Col1a1 [4]
CCCc1csc2c1C(c1ccc(O)c(O)c1)CNC2 (centres unmarked) [4-(3-propyl-4,5,6,7-tetrahydrothieno[2,3-c]pyridin-4-yl)benzene-1,2-diol] | 1000 to 20000 nM | 1000 to 20000 nM |  |  | 
COc1cc(C2CNCc3sccc32)cc(Cl)c1OC (centres unmarked) [4-(3-chloro-4,5-dimethoxyphenyl)-4,5,6,7-tetrahydrothieno[2,3-c]pyridine] | 1000 to 20000 nM | 1000 to 20000 nM |  |  | 
Cc1cc2c(cc1O)CN[C@H]1CCc3cc(O)c(O)cc3[C@H]21 [(6aS,12bR)-2-methyl-5,6,6a,7,8,12b-hexahydrobenzo[a]phenanthridine-3,10,11-triol] |  | 1000 to 20000 nM | < 1000 nM |  | 
COc1ccc(C2CNCc3sccc32)cc1OC (centres unmarked) [4-(3,4-dimethoxyphenyl)-4,5,6,7-tetrahydrothieno[2,3-c]pyridine] | 1000 to 20000 nM | 1000 to 20000 nM |  |  | 
(6aR,12bS)-10,11-dimethoxy-2-methyl-5,6,6a,7,8,12b-hexahydrobenzo[a]phenanthridin-3-ol [Compound 4a] |  |  |  | inhibit YAP/TAZ nuclear localization | 
CCCc1csc2c1[C@@H](c1ccc(O)c(O)c1)CNC2 [(R)-4-(3-propyl-4,5,6,7-tetrahydrothieno[2,3-c]pyridin-4-yl)benzene-1,2-diol] | 1000 to 20000 nM | 1000 to 20000 nM |  |  | 
Oc1cc2c(cc1O)[C@H]1c3ccc(O)c(O)c3CN[C@@H]1CC2 [(6aR,12bS)-5,6,6a,7,8,12b-hexahydrobenzo[a]phenanthridine-3,4,10,11-tetraol] |  | 1000 to 20000 nM |  |  | 
COc1c(O)cc(C2CNCc3sccc32)cc1Cl (centres unmarked) [3-chloro-2-methoxy-5-(4,5,6,7-tetrahydrothieno[2,3-c]pyridin-4-yl)phenol] | 1000 to 20000 nM | 1000 to 20000 nM |  |  | 
Oc1ccc([C@H]2CNCc3sccc32)cc1O [(R)-4-(4,5,6,7-tetrahydrothieno[2,3-c]pyridin-4-yl)benzene-1,2-diol] | < 1000 nM | 1000 to 20000 nM |  |  | 
Oc1cc2c(cc1O)[C@@H]1c3ccc(O)c(O)c3CN[C@@H]1CC2 [(6aR,12bR)-5,6,6a,7,8,12b-hexahydrobenzo[a]phenanthridine-3,4,10,11-tetraol] |  | 1000 to 20000 nM |  |  | 
Cc1cc2c(cc1O)CN[C@H]1CCc3cc(O)c(O)cc3[C@H]21 (relative stereo) [Compound 3, Trans-(6a,12b)-2-methyl-5,6,6a,7,8,12b-hexahydro-benzo[a]phenanthridine-3,10,11-triol] |  |  |  | inhibit YAP/TAZ nuclear localization | inhibits expression of Col1a1
Oc1ccc(C2CNCc3cnccc32)cc1O (centres unmarked) [4-(1,2,3,4-tetrahydro-2,7-naphthyridin-4-yl)benzene-1,2-diol] |  | 1000 to 20000 nM |  |  | 
Oc1cc(C2CNCc3sccc32)cc(Cl)c1O (centres unmarked) [3-chloro-5-(4,5,6,7-tetrahydrothieno[2,3-c]pyridin-4-yl)benzene-1,2-diol] | < 1000 nM | 1000 to 20000 nM |  |  | 
CN1Cc2sccc2C(c2ccc(O)c(O)c2)C1 (centres unmarked) [4-(6-methyl-4,5,6,7-tetrahydrothieno[2,3-c]pyridin-4-yl)benzene-1,2-diol] | 1000 to 20000 nM | 1000 to 20000 nM |  |  | 
Oc1ccc([C@@H]2CNCc3sccc32)cc1O [(S)-4-(4,5,6,7-tetrahydrothieno[2,3-c]pyridin-4-yl)benzene-1,2-diol] | < 1000 nM | 1000 to 20000 nM |  |  | 
Oc1ccc2c(c1)[C@@H]1c3cc(O)c(O)cc3CC[C@H]1NC2 [(6aR,12bS)-5,6,6a,7,8,12b-hexahydrobenzo[a]phenanthridine-2,10,11-triol] |  | 1000 to 20000 nM | < 1000 nM |  | 
CCCc1csc2c1C(c1ccc(OC)c(OC)c1)CNC2 (centres unmarked) [4-(3,4-dimethoxyphenyl)-3-propyl-4,5,6,7-tetrahydrothieno[2,3-c]pyridine] | 1000 to 20000 nM | 1000 to 20000 nM |  |  | 
CCCc1csc2c1[C@H](c1ccc(O)c(O)c1)CNC2 [(S)-4-(3-propyl-4,5,6,7-tetrahydrothieno[2,3-c]pyridin-4-yl)benzene-1,2-diol] | 1000 to 20000 nM | 1000 to 20000 nM |  |  | 
